Experimental data as given in patent US20070015813A1, “Treatment of protein folding disorders” (QUEEN'S UNIVERSITY AT KINGSTON, priority 2005, published 2007).

Key:
Aβ1-40 [1] = target: T1, Aβ1-40 (Homo sapiens, UniProt P05067); assay: Kinetic Thioflavin T (ThT) aggregation assay of Aβ1-40; assay type: biochemical; conditions: 20 μM Aβ1-40, 4 μM ThT, pH 7.4, 37° C., kinetic ThT assay
T1 construct: Aβ^1-40 (AnaSpec, San Jose, Calif., lots 14212, 34862 and 34889); purchased AnaSpec, San Jose, Calif
T1 sequence (P05067 672-711 limits assumed): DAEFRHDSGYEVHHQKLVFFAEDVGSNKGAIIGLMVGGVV
Procedure: Aβ^1-40 (1.0 mg) was pre-treated in a 1.5 mL microfuge tube with 1,1,1,3,3,3-hexafluoroisopropanol (HFIP, 1 mL) and sonicated for 20 min. to disassemble any pre-formed Aβ aggregates. The HFIP was removed with a stream of argon and the Aβ dissolved in Tris base (5.8 mL, 20 mM, pH 10.5). The pH was adjusted to 7.4 with concentrated HCl and the solution filtered using a syringe filter (0.2 μm). This solution was used for circular dichroism studies or diluted with an equal volume of 8 μM Thioflavin T (ThT) in Tris-HCl (20 mM, pH 7.4, 300 mM NaCl) for the ThT aggregation assay.
Aliquots (200 μL) of Aβ^1-40, Aβ^1-42, tau441 or α-synuclein with ThT or ThS were added to wells of a black polystyrene 96-well plate, followed by 2 μL of a compound in DMSO (various concentrations), or DMSO alone (controls). For α-synuclein, sodium dodecyl sulfate solution (2.0 μL, 30 mM) was also added to each well to induce aggregation. Incubations were performed in triplicate and were taken to contain 20 μM Aβ^1-40 or Aβ^1-42, 6 μM tau441 or 4 μM α-synuclein. Plates were covered with clear polystyrene lids and incubated at 37° C. in a GENios microplate reader obtained from Tecan Group Limited, Mannedorf, Zurich. For Aβ^1-40, tau441 and α-synuclein, fluorescence readings (λex=450 nm, λem=480 nm) were taken every 15 min., after first shaking at high intensity for 15 sec. and allowing to settle for 10 sec. before each reading. For Aβ^1-42, readings were taken every 5 min.
The absorbance of each compound was measured under the conditions used during testing, though on ten times the scale (2 mL), to ensure no significant quenching interfered with the assay. This step was also used to identify whether compounds were completely soluble under testing conditions.
FIG. 1 depicts the inhibition of Aβ^1-40 aggregation, as measured by Thioflavin T (ThT) fluorescence, by directly-linked 3,3′-bis-indolyl compounds 0c-i (A), other bis-indoles (B), aza-indole-containing compounds (C), indole-phenols (D), indole-5-carboxylic acid-containing bi-aromatics (E), and naphthol-containing bi-aromatics (F). Aggregation conditions: 20 μM Aβ^1-40 incubated in covered black 96-well polystyrene microplates with 4 μM ThT, pH 7.4, Tris-HCl (20 mM), 150 mM NaCl, 1% DMSO. Compound concentrations are 200 μM (A,B, except where otherwise noted), 100 μM (E), 20 μM (F), or as indicated (C,D). Plates heated at 37° C. in Tecan Genios microplate reader. All incubations performed in triplicate. Prior to experiment, Aβ^1-40 pretreated with 1,1,1,3,3,3-hexafluoroisopropanol (HFIP). Fluorescence readings: fluorescence measured every 15 min. (λex=450 nm, λem=480 nm) after shaking for 15 sec. and pausing 10 sec. before taking measurement. Values are the mean of three replicates. Error bars, omitted for clarity in (B), represent standard deviation of the mean.

Aβ1-40 [2] = target: T1, Aβ1-40; assay: 1H NMR binding of bi-aromatics to Aβ1-40; conditions: 100 μM Aβ1-40, 50 μM compound, D2O, 27° C.
Procedure: Aβ^1-40 was dissolved in HFIP (1 mL) and sonicated (20 min) to disassemble any pre-formed aggregates. The HFIP was removed with a stream of Ar(g) and the waxy residue dissolved in 2.2 mL buffer (Tris-d11, 20 mM in D2O). Incubations (0.500 mL) were made directly in thin-walled NMR tubes, to which were added compound (2.5 μL, 10 mM in DMSO-d6) or vehicle. An identical incubation lacking Aβ^1-40 was used as compound reference. Spectra were obtained for Aβ^1-40 alone (100 μM), compound alone (50 μM) and for a mixture of both (100 μM Aβ^1-40, 50 μM compound). Spectra were recorded at 500 MHz and 27° C. (300K), with 674 scans obtained for each.
FIG. 9 depicts ^1H NMR spectra identifying binding of 5-bromo-5′-carboxy-3,3′-bis-indolyl (0c) to Aβ^1-40. Spectra were obtained for Aβ^1-40 alone (100 μM, A), compound alone (50 μM, C) and for a mixture of both (100 μM Aβ^1-40, 50 μM compound, B). Spectra were recorded at 500 MHz and 27° C. (300K) in D2O containing 1% DMSO-d6, and 674 scans were obtained for each.

Aβ1-40 [3] = target: T1, Aβ1-40; assay: “Seeded” Thioflavin T aggregation assay for Aβ1-40; assay type: biochemical; conditions: HFIP pretreatment omitted
From the text: The same procedure as described in Thioflavin T Aggregation Assay was used for “seeded” ThT aggregarion assay for Aβ^1-40 but the HFIP pretreatment was omitted. The presence of small Aβ^1-40 aggregates in the untreated batches caused aggregation to begin immediately rather than after a 12-24 hr. lag period.

Row | Compound | inhibition of Aβ1-40 aggregation, as measured by Thioflavin T (ThT) fluorescence (Aβ1-40 [1]) | binding to Aβ1-40 by 1H NMR (signal broadening) (Aβ1-40 [2]) | inhibition of Aβ1-40 aggregation in “seeded” ThT assay (Aβ1-40 [3])
1 | O=C(O)c1ccc2[nH]cc(-c3c[nH]c4ccc(Br)cc34)c2c1 [0c, 3-(5-bromo-indol-3-yl)-indole-5-carboxylic Acid] | dose-response effect | binding | inhibition
2 | O=c1c(O)c(-c2ccc(O)cc2O)oc2cc(O)cc(O)c12 [morin] | inhibition | – | –
